Data from patent US8541407B2 (ArQule, Inc., priority 2010, dated 2013).
pIC50: −log10 of the molar value.

The compounds below were run against AKT1 (Homo sapiens (Human), UniProt P31749) (assay: Inactive Akt Alpha Screen Assay). Settings: non *labeled: Akt Alpha Screen assay; read-out: AKT1 biochemical assay, IC50.
Experimental: AKT1 activity was assayed using the GSK3-derived biotinylated peptide substrate, crosstide (biotin-[…]), and AlphaScreen™ (Amplified Luminescent Proximity Homogeneous Assay) technology. AKT1 activation was achieved by the addition of the activating kinases PDK1 and MAPKAPK2, lipid vesicles, and ATP. The extent of peptide phosphorylation was determined using a phospho-AKT substrate antibody and acceptor beads conjugated to Protein A and donor beads conjugated to streptavidin that bind to the biotin on the peptide. Excitation of the donor beads converted ambient oxygen to excited singlet oxygen which, when in close proximity to acceptor beads, reacted with acceptor beads resulting in signal amplification. […] The plates were incubated for 30 minutes at room temperature, and then stopped in the dark by the addition of 10 μL stop/detection mixture prepared in assay buffer containing EDTA, AlphaScreen™ Streptavidin Donor and Protein A Acceptor beads, and phospho-AKT substrate antibody for final concentrations of 10 mM EDTA, 500 ng/well of both AlphaScreen™ Streptavidin Donor beads and Protein A Acceptor beads, and phospho-AKT substrate antibody at a final dilution of 1:350. Assay plates were incubated for 90 minutes at room temperature in the dark, and the plates were read on a Perkin Elmer Envision Multilabel plate reader (excitation wavelength: […], emission wavelength: 570 nm). […] Envision Instrument Settings: • Instrument: Perkin Elmer Envision • Plate: 96 well • Program Name: • Excitation: Ex Top • Mirror: General Dual—Slot 2 • Excitation Filter: CFP430 Ex.

Chain of AKT1 (P31749 whole entry): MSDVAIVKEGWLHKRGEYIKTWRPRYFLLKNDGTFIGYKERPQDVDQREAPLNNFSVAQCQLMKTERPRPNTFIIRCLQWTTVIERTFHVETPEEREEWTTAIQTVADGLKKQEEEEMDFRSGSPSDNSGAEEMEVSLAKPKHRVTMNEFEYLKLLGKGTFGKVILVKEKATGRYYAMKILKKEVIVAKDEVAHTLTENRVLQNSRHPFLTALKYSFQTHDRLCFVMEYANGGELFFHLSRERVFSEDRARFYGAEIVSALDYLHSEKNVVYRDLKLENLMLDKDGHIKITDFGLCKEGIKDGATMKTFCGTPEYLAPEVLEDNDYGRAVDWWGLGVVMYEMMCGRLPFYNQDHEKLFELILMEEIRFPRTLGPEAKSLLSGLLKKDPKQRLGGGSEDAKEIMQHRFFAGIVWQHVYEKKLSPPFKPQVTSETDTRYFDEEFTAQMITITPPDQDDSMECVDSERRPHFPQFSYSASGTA

pIC50	SMILES
5.28	O=C(Nc1ccc(-c2nnc3n2-c2cccnc2Nc2ccccc2-3)cc1)c1ccc(F)c(C(F)(F)F)c1 [Example 46, N-(4-(9H-benzo[f]pyrido[2,3-b][1,2,4]triazolo[4,3-d][1,4]diazepin-3-yl)phenyl)-4-fluoro-3-(trifluoromethyl)benzamide]
7.28	O=C(Nc1ccc(-c2nnc3n2-c2cccnc2Nc2ccccc2-3)cc1)c1ccc2c(c1)OCO2 [Example 47, N-(4-(9H-benzo[f]pyrido[2,3-b][1,2,4]triazolo[4,3-d][1,4]diazepin-3-yl)phenyl)benzo[d][1,3]dioxole-5-carboxamide]
6.92	Cc1cc(C(=O)Nc2ccc(-c3nnc4n3-c3cccnc3Nc3ccccc3-4)cc2)no1 [Example 48, N-(4-(9H-benzo[f]pyrido[2,3-b][1,2,4]triazolo[4,3-d][1,4]diazepin-3-yl)phenyl)-5-methylisoxazole-3-carboxamide]
6.62	O=C(Cc1ccccc1)Nc1ccc(-c2nnc3n2-c2cccnc2Nc2ccccc2-3)cc1 [Example 49, N-(4-(9H-benzo[f]pyrido[2,3-b][1,2,4]triazolo[4,3-d][1,4]diazepin-3-yl)phenyl)-2-phenylacetamide]
6.89	O=C(Nc1ccc(-c2nnc3n2-c2cccnc2Nc2ccccc2-3)cc1)c1ccco1 [Example 50, N-(4-(9H-benzo[f]pyrido[2,3-b][1,2,4]triazolo[4,3-d][1,4]diazepin-3-yl)phenyl)furan-2-carboxamide]
6.96	O=C(Nc1ccc(-c2nnc3n2-c2cccnc2Nc2ccccc2-3)cc1)c1ccccc1F [Example 51, N-(4-(9H-benzo[f]pyrido[2,3-b][1,2,4]triazolo[4,3-d][1,4]diazepin-3-yl)phenyl)-2-fluorobenzamide]
6.19	O=C(Nc1ccc(-c2nnc3n2-c2cccnc2Nc2ccccc2-3)cc1)c1ccc(C(F)(F)F)cc1 [Example 52, N-(4-(9H-benzo[f]pyrido[2,3-b][1,2,4]triazolo[4,3-d][1,4]diazepin-3-yl)phenyl)-4-(trifluoromethyl)benzamide]
5.82	COCC(=O)Nc1ccc(-c2nnc3n2-c2cccnc2Nc2ccccc2-3)cc1 [Example 53, N-(4-(9H-benzo[f]pyrido[2,3-b][1,2,4]triazolo[4,3-d][1,4]diazepin-3-yl)phenyl)-2-methoxyacetamide]
5.74	O=C(CCc1ccccc1)Nc1ccc(-c2nnc3n2-c2cccnc2Nc2ccccc2-3)cc1 [Example 54, N-(4-(9H-benzo[f]pyrido[2,3-b][1,2,4]triazolo[4,3-d][1,4]diazepin-3-yl)phenyl)-3-phenylpropanamide]
6.80	O=C(Nc1ccc(-c2nnc3n2-c2cccnc2Nc2ccccc2-3)cc1)c1cnc2ccccc2n1 [Example 55, N-(4-(9H-benzo[f]pyrido[2,3-b][1,2,4]triazolo[4,3-d][1,4]diazepin-3-yl)phenyl)quinoxaline-2-carboxamide]
6.15	O=C(Nc1ccc(-c2nnc3n2-c2cccnc2Nc2ccccc2-3)cc1)C1CCC1 [Example 57, N-(4-(9H-benzo[f]pyrido[2,3-b][1,2,4]triazolo[4,3-d][1,4]diazepin-3-yl)phenyl)cyclobutanecarboxamide]
6.46	O=C(Nc1ccc(-c2nnc3n2-c2cccnc2Nc2ccccc2-3)cc1)c1ccncc1 [Example 58, N-(4-(9H-benzo[f]pyrido[2,3-b][1,2,4]triazolo[4,3-d][1,4]diazepin-3-yl)phenyl)isonicotinamide]
7.12	N#Cc1cccc(C(=O)Nc2ccc(-c3nnc4n3-c3cccnc3Nc3ccccc3-4)cc2)c1 [Example 60, N-(4-(9H-benzo[f]pyrido[2,3-b][1,2,4]triazolo[4,3-d][1,4]diazepin-3-yl)phenyl)-3-cyanobenzamide]
6.11	O=C(Nc1ccc(-c2nnc3n2-c2cccnc2Nc2ccccc2-3)cc1)c1ccc(-c2ccccc2)cc1 [Example 61, N-(4-(9H-benzo[f]pyrido[2,3-b][1,2,4]triazolo[4,3-d][1,4]diazepin-3-yl)phenyl)-[1,1′-biphenyl]-4-carboxamide]
6.16	NCc1ccc(-c2nnc3n2-c2cccnc2Nc2ccccc2-3)cc1 [Example 62, (4-(9H-benzo[f]pyrido[2,3-b][1,2,4]triazolo[4,3-d][1,4]diazepin-3-yl)phenyl)methanamine]
6.31	CS(=O)(=O)OCc1ccc(-c2nnc3n2-c2cccnc2Nc2ccccc2-3)cc1 [Example 64, 4-(9H-benzo[f]pyrido[2,3-b][1,2,4]triazolo[4,3-d][1,4]diazepin-3-yl)benzyl methanesulfonate]
5.37	c1ccc2c(c1)Nc1ncccc1-n1c(-c3ccc(CN4CCCC4)cc3)nnc1-2 [Example 65, 3-(4-(pyrrolidin-1-ylmethyl)phenyl)-9H-benzo[f]pyrido[2,3-b][1,2,4]triazolo[4,3-d][1,4]diazepine]
5.72	c1ccc(CNCc2ccc(-c3nnc4n3-c3cccnc3Nc3ccccc3-4)cc2)cc1 [Example 66, N-(4-(9H-benzo[f]pyrido[2,3-b][1,2,4]triazolo[4,3-d][1,4]diazepin-3-yl)benzyl)-1-phenylmethanamine]
5.55	Fc1ccccc1N1CCN(Cc2ccc(-c3nnc4n3-c3cccnc3Nc3ccccc3-4)cc2)CC1 [Example 67, 3-(4-((4-(2-fluorophenyl)piperazin-1-yl)methyl)phenyl)-9H-benzo[f]pyrido[2,3-b][1,2,4]triazolo[4,3-d][1,4]diazepine]
5.36	CC(C)CCNCc1ccc(-c2nnc3n2-c2cccnc2Nc2ccccc2-3)cc1 [Example 68, N-(4-(9H-benzo[f]pyrido[2,3-b][1,2,4]triazolo[4,3-d][1,4]diazepin-3-yl)benzyl)-3-methylbutan-1-amine]
5.35	c1ccc2c(c1)Nc1ncccc1-n1c(-c3ccc(CNC4CCC4)cc3)nnc1-2 [Example 69, N-(4-(9H-benzo[f]pyrido[2,3-b][1,2,4]triazolo[4,3-d][1,4]diazepin-3-yl)benzyl)cyclobutanamine]
5.68	CCN(Cc1ccncc1)Cc1ccc(-c2nnc3n2-c2cccnc2Nc2ccccc2-3)cc1 [Example 70, N-(4-(9H-benzo[f]pyrido[2,3-b][1,2,4]triazolo[4,3-d][1,4]diazepin-3-yl)benzyl)-N-(pyridin-4-ylmethyl)ethanamine]
5.19	CC(C)CNCc1ccc(-c2nnc3n2-c2cccnc2Nc2ccccc2-3)cc1 [Example 71, N-(4-(9H-benzo[f]pyrido[2,3-b][1,2,4]triazolo[4,3-d][1,4]diazepin-3-yl)benzyl)-2-methylpropan-1-amine]
5.10	CN(C)C(=O)CN1CCN(Cc2ccc(-c3nnc4n3-c3cccnc3Nc3ccccc3-4)cc2)CC1 [Example 72, 2-(4-(4-(9H-benzo[f]pyrido[2,3-b][1,2,4]triazolo[4,3-d][1,4]diazepin-3-yl)benzyl)piperazin-1-yl)-N,N-dimethylacetamide]
5.34	COCCNCc1ccc(-c2nnc3n2-c2cccnc2Nc2ccccc2-3)cc1 [Example 73, N-(4-(9H-benzo[f]pyrido[2,3-b][1,2,4]triazolo[4,3-d][1,4]diazepin-3-yl)benzyl)-2-methoxyethanamine]
5.28	c1ccc2c(c1)Nc1ncccc1-n1c(-c3ccc(CN4CCN(Cc5ccncc5)CC4)cc3)nnc1-2 [Example 74, 3-(4-((4-(pyridin-4-ylmethyl)piperazin-1-yl)methyl)phenyl)-9H-benzo[f]pyrido[2,3-b][1,2,4]triazolo[4,3-d][1,4]diazepine]
